Laboratory results from paper PMC6260619, “Selective Cytotoxicity of Goniothalamin against Hepatoblastoma HepG2 Cells” (Molecules, 2011).
Read-outs that look alike come from different tables or passages of the source.

Columns and labels:
Assay type in all cases: cell-based, human
[1] = test system: HepG2 cells; assay: Cell cycle PI analysis by flow cytometry, HepG2
Experimental: The ability of a substance to affect specific phases of the cell cycle may provide clues as to its mechanism(s) of action. To determine the effects of goniothalamin on the cell cycle, HepG2 cells were treated with IC50 levels of goniothalamin (determined from the MTT assay) for 24, 48 and 72 hours, respectively. The cells were stained with PI and the DNA contents analyzed by flow cytometry.
(§1) The treated cells were trypsinized and washed with PBS. After centrifugation, the supernatant was removed. Then, 1 × 10^6 cells were harvested and fixed in ice-cold ethanol (70%). The fixed cells were centrifuged at high speed (180 × g) for 10 minutes to adequately pellet down the cells that were suspended in the ethanol. The pellet was washed by the ice-cold PBS and then centrifuged again at 180 × g for 10 minutes. The final pellet was resuspended with 1 mL of RNase and incubated at 37 °C for 30 minutes. At the end of incubation, DNA binding dye PI (1 mg/mL) was added to give a final concentration of 50 µg/mL. The mixture was incubated at room temperature for 10 min in the dark. Data acquisition and analysis were performed in by flow cytometry FACS Calibur flow cytometer (Becton Dickinson, Franklin Lakes, NJ, USA) using CellQuest 3.3 software.

[2] = test system: HepG2 cells; assay: LDH leakage assay, HepG2; conditions: for IC50: Homo sapiens, read-out: IC50 from LDH
Experimental: Measurement of LDH activity is another indicator of cell viability through evaluation of the cell membrane permeability. The enzyme activity is measured externally, as it leaks from dead cells which lose their membrane integrity. LDH leakage detection is based on the loss of NADH due to its oxidation to NAD^+, resulting in the conversion of pyruvate to lactate. Untreated cells should retain LDH in their cells and have minimal loss over the time of the assay. Triton X-100-treated cells that give the maximum loss of LDH were used as the positive control in this assay.
To determine the effect of goniothalamin on membrane permeability in HepG2 and Chang cell lines, a lactate dehydrogenase (LDH) release assay was used. The cells were seeded in 96-well culture plates at a density of 2 × 10^4 cells/well in 100 μL volume and allowed to grow for 18 hours before treatment. After treatment, the plates were incubated for 24, 48 and 72 hours, respectively. Then, the supernatant (40 μL) was transferred to a new 96 well to determine LDH release and 6% triton X-100 (40 μL) was added to the original plate for determination of total LDH. An aliquot of 0.1 M potassium phosphate buffer (100 μL, pH 7.5) containing 4.6 mM pyruvic acid was mixed to the supernatant using repeated pipetting. Then, 0.1 M potassium phosphate buffer (100 μL, pH 7.5) containing 0.4 mg/mL reduced β-NADH was added to the wells. The kinetic changes were read for 1 min using ELISA microplate reader in absorbance at wavelength 340 nm. This procedure was repeated with 40 μL of the total cell lysate to determine total LDH U/well. A change of 0.001 absorbance units/min is equivalent to 1 U/L of LDH activity. The percentage of LDH release was determined by dividing the LDH released into the media by the total LDH following cell lysis in the same well.

[3] = test system: Chang cells; assay: MTT cytotoxicity assay, Chang; conditions: for IC50: read-out: IC50 from MTT
Experimental: HepG2 and Chang cells were plated at 1 × 10^4 cells/well by adding 200 μL of a 5 × 10^4 cells/mL suspension to each well of a 96-well tissue culture plate. The plate was incubated for a sufficient time to assure attachment and 40% to 60% confluency. […] The last row was left as an untreated control. The plates were incubated at 37 °C, 5% CO2, for 24, 48 and 72 hours, respectively. After incubation with compounds, the media was aspirated off and replaced with fresh media. Then, MTT solution (20 μL) for a total volume of 200 μL was added in every well and incubated for 4 to 6 hours at 37 °C with 5% CO2. After that, MTT-containing medium was removed gently and replaced with DMSO (200 μL per well) to mix the formazan crystals until dissolved. The plates were read on microtiter plate reader at 570 nm. For each compound tested, the IC50 (concentration of drug needed to inhibit cell growth by 50%) is generated from the dose-response curves for each cell line.

[4] = test system: Chang cells; assay: Cell cycle PI analysis by flow cytometry, Chang
Experimental: The effect of goniothalamin on the cell cycle distribution of non-malignant Chang cells was also assessed. […] Accordingly, goniothalamin induced a marked apoptosis in a time-dependent manner at IC50 concentrations. As expected, the increase in the apoptotic population was associated with a concomitant enlargement of the pre-phase population, as observed in cell cycle analysis.
as §1

[5] = HepG2, 24h, at IC50 (goniothalamin 9.2 µM; doxorubicin 2.2 µM)
[6] = HepG2, 48h, at IC50 (goniothalamin 8.3 µM; doxorubicin 4.3 µM)
[7] = HepG2, 72h, at IC50 (goniothalamin 4.6 µM; doxorubicin […])
[8] = 24h, at IC50 (goniothalamin 79.10 µM; doxorubicin 0.83 µM)
[9] = 48h, at IC50 (goniothalamin 63.75 µM; doxorubicin 0.41 µM)
[10] = 72h, at IC50 (goniothalamin 35.01 µM; doxorubicin 0.28 µM)

O=C1C=CC[C@H](/C=C/c2ccccc2)O1 [Goniothalamin, 5-hydroxy-7-phenylhepta-2,6-dienoic acid lactone]
G0/G1 [1, 5]: 68.92 ± 1.27% | G2+M [1, 5]: 5.94 ± 0.22% | S [1, 5]: 7.68 ± 0.12% | SubG0/G1 [1, 5]: 17.44 ± 1.67% | G0/G1 [1, 6]: 39.71 ± 3.50% | G2+M [1, 6]: 5.67 ± 4.13% | S [1, 6]: 8.03 ± 0.29% | SubG0/G1 [1, 6]: 46.59 ± 2.79% | G0/G1 [1, 7]: 31.79 ± 5.82% | G2+M [1, 7]: 2.31 ± 4.19% | S [1, 7]: 7.07 ± 0.18% | SubG0/G1 [1, 7]: 58.83 ± 2.09% | SubG0/G1 ([1]; HepG2, 72h, at IC50 (goniothalamin 4.6 µM; doxorubicin […]), listed as goniothalamin): 59% | death percentage compared to Triton X-100-treated cells ([2]; HepG2, 4.6 µM, 72 hours): 50% | LDH leakage ([2]; HepG2, 9.4 µM, 72 hours, relative to Triton X-100 maximum): 62% | LDH leakage ([2]; HepG2, 37.5 µM, 24 hours): 60% | LDH leakage ([2]; HepG2, 37.5 µM, 48 hours): 70% | LDH leakage ([2]; HepG2, 37.5 µM, 72 hours): 70% | LDH leakage ([2]; HepG2, 150 µM, 24 hours): 80% | LDH leakage ([2]; HepG2, 150 µM, 48 hours): 86% | LDH leakage ([2]; HepG2, 150 µM, 72 hours): 93% | IC50 ([2]; HepG2, 24 hours): 13.4 µM | IC50 ([2]; HepG2, 48 hours): 8.29 µM | IC50 ([2]; HepG2, 72 hours): 5.2 µM | decrease of cell growth vs untreated control ([3]; 37.5 μM, 24 hours): 39% | decrease of cell growth vs untreated control ([3]; 37.5 μM, 48 hours): 44% | decrease of cell growth vs untreated control ([3]; 37.5 μM, 72 hours): 54% | decrease of cell growth vs untreated control ([3]; 75 μM, 24 hours): approximately 49% | decrease of cell growth vs untreated control ([3]; 75 μM, 48 hours): ~53% | decrease of cell growth vs untreated control ([3]; 75 μM, 72 hours): ~63% | IC50 ([3]; 72 hours): 35 µM | IC50 ([3]; Homo sapiens, 24 h): 79.1 µM | IC50 ([3]; Homo sapiens, 48 h): 63.8 µM | IC50 ([3]; Homo sapiens, 72 h): 35 µM | G0/G1 [4, 8]: 55.08 ± 3.60% | G2+M [4, 8]: 14.89 ± 5.53% | S [4, 8]: 12.65 ± 2.79% | SubG0/G1 [4, 8]: 17.38 ± 7.29% | G0/G1 [4, 9]: 58.68 ± 9.45% | G2+M [4, 9]: 2.5 ± 5.89% | S [4, 9]: 5.82 ± 0.16% | SubG0/G1 [4, 9]: 33.00 ± 3.40% | G0/G1 [4, 10]: 11.60 ± 0.07% | G2+M [4, 10]: 2.5 ± 0.44% | S [4, 10]: 4.91 ± 0.13% | SubG0/G1 [4, 10]: 80.99 ± 0.64%
